Data taken from US9970057B2, “Human invasion signature for prognosis of metastatic risk” (ALBERT EINSTEIN COLLEGE OF MEDICINE, INC., priority 2011, dated 2018).
“Also recorded” adds a separate entry of the source.

Experiments:
[1] = tested on: MDA-MB-231 tumors and patient-derived HT17 and HT39 breast tumors; test: intravasation assay (circulating tumor cells in blood); assay type: in vivo, SCID mice; settings: injected intraperitoneally four hours prior to the experiments; MDA-MB-231, HT17 and HT39 tumors; vs vehicle or control IgG
Protocol: (§1) SB431542 was used, a small molecule specific inhibitor of the TGFβ receptor (14,38), which was injected into the tumor-bearing mice prior to measurements of invasion and intravasation. Invasion was measured by count of the total cells that chemotax and invade in the primary tumor towards a gradient source (EGF or FBS) with the in vivo invasion assay. Intravasation and dissemination was measured by count of the circulating tumor cells in the total blood of tumorbearing mice.
(§2) The inhibitors SB431542 (a small molecule specific inhibitor of the TGFβ receptor), NSC87877 (a small molecule specific inhibitor of PTPN11) were used, and a neutralizing antibody specific to human IL8 for the experiments. Because the focus of the study is migration and invasion, a drug treatment of only 4 hours was given to the mice before experimental assays so that an acute effect on migration can be measured without long-term effects on tumor growth. Invasion was measured by count of the total cells that chemotax and invade in the primary tumor towards a gradient source (EGF or FBS) with the in viva invasion assay. Intravasation and hematogenous dissemination was measured by count of the circulating tumor cells (CTCs) in the blood of tumor-bearing mice. […] No significant difference in overall cell death was observed by histology in the treated tumors with the four-hour acute treatments. […] As a negative control, an inhibitor to a gene was used that was not identified by the HIS, namely, MYC, a known oncogene recently identified as a master regulator of expression in “poor-outcome” cancer signatures. […] Most of the published signatures to date are isolated from whole patient samples, and therefore represent “whole-picture” information about the metastatic process, a summary of invasion, dissemination, and growth/proliferation. […]
(§3) Animal Models. […] The mice were monitored for growth for up to 9 months, at which time if a tumor was not visible they were euthanized. For the tumors that grew, in vivo invasion was measured, and then the tumor was used to passage to new mice (surgical procedure same as before). […]

[2] = tested on: MDA-MB-231 tumors and patient-derived HT17 and HT39 breast tumors; test: in vivo invasion assay in tumor-bearing mice; parameters: species or system SCID mice; settings: injected intraperitoneally four hours prior to the experiments; EGF or FBS gradient; MDA-MB-231, HT17 and HT39 tumors; vs vehicle or control IgG
Protocol: as §1, §2, §3

MDA-MB-231 xenograft = test: BrdU incorporation (proliferation marker) in tumors; assay type: in vivo; settings: MDA-MB-231 xenograft mice, acute treatment
Text: FIG. 13A-13C. […] (15A). Schematic of experimental design for the inhibitor treatments. (15B). Representative images of immunostained tumors sections with BrdU antibody (black) and counterstained for nuclei (gray). (15C). Quantification of the above experiments is shown for 3 mice per group, and 10 random 40× images per mouse/tumor (excluding necrotic areas). Bars represent the average percentage of BrdU positive nuclei (black) over total (gray). Error bars: SEM. p-values by Student's t-test.
The inhibitors SB431542 (a small molecule specific inhibitor of the TGFβ receptor), NSC87877 (a small molecule specific inhibitor of PTPN11) were used, and a neutralizing antibody specific to human IL8 for the experiments. Because the focus of the study is migration and invasion, a drug treatment of only 4 hours was given to the mice before experimental assays so that an acute effect on migration can be measured without long-term effects on tumor growth. Invasion was measured by count of the total cells that chemotax and invade in the primary tumor towards a gradient source (EGF or FBS) with the in viva invasion assay. Intravasation and hematogenous dissemination was measured by count of the circulating tumor cells (CTCs) in the blood of tumor-bearing mice. […] No significant difference in overall cell death was observed by histology in the treated tumors with the four-hour acute treatments. […]

Q: For `NC(=O)c1ccc(-c2nc(-c3ccc4c(c3)OCO4)c(-c3ccccn3)[nH]2)cc1` [SB431542, 4-[4-(1,3-benzodioxol-5-yl)-5-(2-pyridinyl)-1H-imidazol-2-yl]benzamide], which “intravasation / tumor cell dissemination (circulating tumor cells in blood)” value [1] is on record?
A: Its value is “effectively abrogate; also recorded: significantly inhibited”.

Q: What about the “in vivo invasion (total cells that chemotax and invade in the primary tumor towards a gradient source, cells per microneedle)” value [2] of the same compound?
A: The value was “effectively abrogate; also recorded: significantly inhibited”.

Q: What does the source list for `CCc1ccc(/C=C2/SC(=S)NC2=O)cc1` [10058-F4]?
A: intravasation / tumor cell dissemination (circulating tumor cells in blood) [1]: did not significantly alter; in vivo invasion (total cells that chemotax and invade in the primary tumor towards a gradient source, cells per microneedle) [2]: did not significantly alter; BrdU incorporation (percentage of BrdU positive nuclei; proliferation in vivo) (MDA-MB-231 xenograft): significantly reduced; also recorded: significantly inhibits

Q: How did the “intravasation / tumor cell dissemination (circulating tumor cells in blood)” value [1] turn out when `O=S(=O)(O)c1ccc2cc(N=Nc3cc(S(=O)(=O)O)c4cccnc4c3O)ccc2c1` [NSC87877, 8-Hydroxy-7-[(6-sulfo-2-naphthyl)azo]-5-quinolinesulfonic acid] was run?
A: Its value is “significantly abrogated; also recorded: significantly inhibited”.

Q: And the “in vivo invasion (total cells that chemotax and invade in the primary tumor towards a gradient source, cells per microneedle)” value [2]?
A: The value was “significantly abrogated; also recorded: significantly inhibited”.
